Source: PubChem BioAssay (NCI)
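Grown in 96-well plates, cells were treated for 48 hours with each compound at five concentrations. Insufficient inhibition: endpoint recorded as highest concentration tested. Here, GI50 denotes the concentration required for 50% inhibition of growth. The concentration for full growth arrest is given as TGI.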

Columns and labels:
Assay in all cases: growth of human tumour cells (NCI), 48 h
MALME-3M melanoma = tested on: MALME-3M melanoma
SF-268 CNS = tested on: SF-268 CNS
NCI/ADR-RES ovarian = tested on: NCI/ADR-RES ovarian
CAKI-1 renal = tested on: CAKI-1 renal
NCI-H460 lung = tested on: NCI-H460 lung
EKVX NSCLC = tested on: EKVX NSCLC
A498 renal = tested on: A498 renal
SF-295 CNS = tested on: SF-295 CNS
MDA-MB-231 breast = tested on: MDA-MB-231 breast
TK-10 renal = tested on: TK-10 renal

| Structure (SMILES) | GI50 (MALME-3M melanoma) [µM] | TGI (MALME-3M melanoma) [µM] | GI50 (SF-268 CNS) [µM] | TGI (SF-268 CNS) [µM] | GI50 (NCI/ADR-RES ovarian) [µM] | TGI (NCI/ADR-RES ovarian) [µM] | GI50 (CAKI-1 renal) [µM] | TGI (CAKI-1 renal) [µM] | GI50 (NCI-H460 lung) [µM] | TGI (NCI-H460 lung) [µM] | GI50 (EKVX NSCLC) [µM] | TGI (EKVX NSCLC) [µM] | GI50 (A498 renal) [µM] | TGI (A498 renal) [µM] | GI50 (SF-295 CNS) [µM] | TGI (SF-295 CNS) [µM] | GI50 (MDA-MB-231 breast) [µM] | TGI (MDA-MB-231 breast) [µM] | GI50 (TK-10 renal) [µM] | TGI (TK-10 renal) [µM] |
| --- | --- | --- | --- | --- | --- | --- | --- | --- | --- | --- | --- | --- | --- | --- | --- | --- | --- | --- | --- | --- |
| COC(=O)[C@]12CC[C@@H](C)[C@H](C)[C@@H]1C1=CC[C@@H]3[C@@]4(C)C[C@@H](OC(=O)/C=C/c5ccccc5)[C@H](O)[C@@](C)(CO)[C@@H]4[C@H](O)C[C@@]3(C)[C@]1(C)CC2 | 2.84 | 10.9 | 2.62 | 10.4 | 2.92 | 10.9 | 3.27 | 11.9 | 2.12 | 4.7 | 2.94 | 11.7 | 1.07 | 4.83 | 2.27 | 5.75 | 1.95 | 4.17 | 2.26 | 6.33 |
| Cn1cc(-c2nc(-c3c[nH]c4ncccc34)cs2)c2ccccc21 | 31.9 | > 100 | 89.4 | > 100 | 19.9 | > 100 | 25.5 | > 100 | 1.27 | > 100 | 0.368 | 61.1 | 34.5 | > 100 | 26.9 | > 100 | 1.03 | 63.8 | 5.78 | 78.3 |
| Cn1cc(C2=C(c3cn(-c4ccccc4)c4ccccc34)C(=O)NC2=O)c2ccccc21 | 14.9 | > 25 | 20.4 | > 25 | 11.2 | > 25 | 16.4 | > 25 | 17.7 | > 25 | – | – | > 16.2 | > 25 | 13.3 | > 25 | > 23.3 | > 25 | > 25 | > 25 |
| O=C(C=P(c1ccccc1)(c1ccccc1)c1ccccc1)CCl | 1.32 | 3.08 | 1.75 | 4.01 | 1.86 | 10.5 | 0.98 | 2.81 | 1.52 | 3.6 | – | – | 1.09 | 2.46 | 2.3 | 7.62 | 1.22 | 3.03 | 1.69 | 3.12 |
| O=C1CC(c2ccccc2)Cc2nc3ccc(Br)cc3cc21 (configuration not stated) | 0.076 | > 91.8 | 4.65 | > 100 | 0.0748 | 9.03 | 0.459 | > 100 | 0.339 | 13.7 | 0.78 | > 100 | 0.0377 | 0.487 | 0.265 | 28.3 | 0.65 | 96.3 | 24.2 | > 100 |
| NC(=S)N/N=C1\c2ccccc2-c2c(F)c(F)c(F)c(F)c21 | 7.54 | 21.1 | 5.26 | 12.5 | 5.77 | 16.7 | 2.34 | 7.16 | 5.65 | 24.7 | 25.4 | > 100 | 16.5 | 55.7 | 12.4 | 57.7 | 4.21 | 10.7 | 5.7 | 15.9 |
| Cn1c(=O)nc2n(-c3ccc(Cl)cc3)c3cc(Cl)ccc3nc-2c1=O | – | 3.44 | – | 7.23 | – | 35.6 | – | 20.7 | – | 27.1 | – | 17.7 | – | 27.6 | – | 23.7 | – | 6.91 | – | 37 |
| CCCCNS(=O)(=O)c1n[nH]c(=O)[nH]c1=O | – | > 100 | – | > 100 | – | > 100 | – | > 100 | – | > 100 | – | > 100 | – | > 100 | – | > 100 | – | > 100 | – | – |
| Cc1cnc2oc3ccc(O)cc3c2c1-c1ccccc1 | 32.5 | > 100 | 16.1 | 58.8 | 28.4 | > 100 | 58.6 | > 100 | 19.7 | > 100 | 13.8 | 65.5 | 21.5 | 70.5 | 23.8 | 93.2 | 3.54 | > 100 | 20.3 | > 100 |
| CC(C)(C)CC(C)(C)c1ccc(O)c(Cc2ccc(Cl)cc2Cl)c1 | 1.68 | 3.24 | 1.6 | 2.95 | 1.65 | 3.05 | 1.31 | 2.58 | 1.62 | 2.97 | 1.57 | 2.94 | 1.33 | 2.61 | 1.62 | 2.98 | 1.56 | 2.92 | 1.54 | 2.87 |
| O=c1cnnc(N/N=C/c2ccccc2O)[nH]1 | 0.426 | 47.5 | 3.45 | > 87.3 | 1.28 | > 64.5 | 3.01 | > 100 | 1.56 | > 100 | – | – | 1.81 | 23.3 | 3.11 | > 100 | 4.37 | > 100 | 8.26 | > 100 |
| CC(C)(c1ccccc1)c1cc(O)c(C(C)(C)c2ccccc2)cc1O | 2.32 | 12.3 | 2.99 | 12.8 | 2.7 | 12.1 | 1.71 | 11.4 | 2.23 | 7.53 | 1.94 | 12.5 | 2.16 | 10.1 | 1.33 | 3.23 | 1.43 | 6.28 | – | – |
| CC1(C)N=C(N)N=C(N)N1c1ccc(OCCCNC(=O)Nc2cccc(S(=O)(=O)F)c2)c(Cl)c1 | 42.8 | > 100 | 0.596 | > 100 | > 100 | > 100 | 30.3 | > 100 | 0.511 | > 100 | 20.3 | > 100 | 21.9 | > 100 | 5.8 | > 100 | 7.25 | > 100 | – | – |
| O=C(NCCCl)Nc1cccnc1 | – | 7.4 | – | – | – | 47.7 | – | 36.1 | – | – | – | 38.3 | – | 40.5 | – | 94.5 | – | 33.3 | – | 27.7 |
